From US20210170033A1, “NOVEL CONJUGATES OF A PHARMACEUTICAL AGENT AND A MOIETY CAPABLE OF BINDING TO A GLUCOSE SENSING PROTEIN” (SANOFI, priority 2017, published 2021)

What follows are compounds tested on A2780 cells (assay: Deoxy-glucose uptake assay in A2780 cells (14C 2-deoxy-D-glucose transport)). Conditions: Homo sapiens, 20 min; inhibition of 14C 2-deoxy-D-glucose transport into A2780 cells; 20 min compound incubation; read-out: IC50.
Type: cell-based
Procedure: 1. Deoxy-Glucose Uptake Assay in A2780 Cells:
For measurement of ^14C 2-deoxy-D-glucose transport into A2780 cells, cells were seeded in 96-well plates (Cytostar-T Plates Perkin Elmer, 70,000 cells/180 μl/well) in medium complete (RPMI1640+Glutamax (Life technologies #61870)) and grown for 48 hours. After 48 h, cells were washed once with 180 μL KRB (Krebs Ringer Bicarbonate) buffer, and stimulated in a dose dependent manner by adding 10 μL of test compound dilution 0-1.1 mM (11 times higher concentration than final) or 10 μL of 1.1 mM Cytochalasin B solution as negative control, to 90 μL KRB buffer and incubated for 20 minutes. After compound stimulation, the transport of ^14C 2-deoxy-D-glucose was started by adding of 50 μL 2-^14C[U] 2-deoxy-D-glucose solution (109.1 μM 2-deoxy-D-glucose cold and 33 μM 2-^14C[U] 2-deoxy-D-glucose 0.1 μCi/well) for 20 minutes. Transport was stopped by adding 50 μL/well 96 μM Cytochalasin B solution. Plates were measured in a 96-well Wallac Microbeta device. The cpm (counts per minute) values were used to determine the % inhibition values for the test compounds within each experiment. In a first step, the mean background value generated by Cytochalasin B (a potent glucose transporter inhibitor) treated cells, was subtracted from the mean values of the treated cells. All mean values were obtained from triplicates. For %-Inhibition results, the mean value of the untreated cells (just KRB) was set as 100%. All other mean values were calculated to this relation. IC50 were obtained by regression analysis of dose response curve with 7 or 14 concentrations, respectively, for each compound.

| Compound | IC50 |
| --- | --- |
| COC(=O)[C@H](CCCCNC(=O)CCCCCNC(=O)CCCCCCC(=O)NCc1cccc(COc2cc(OC)c(C(=O)N[C@H]3[C@@H](OC)O[C@H](CO)[C@@H](O)[C@@H]3O)cc2Cl)c1)NC(=O)OC(C)(C)C [Example 468] | 27.8 µM |
| COC(=O)[C@H](CCCCNC(=O)CCC(=O)NCc1cccc(COc2cc(OC)c(C(=O)N[C@H]3[C@@H](OC)O[C@H](CO)[C@@H](O)[C@@H]3O)cc2Cl)c1)NC(=O)OC(C)(C)C [Example 435] | 45.3 µM |
| COC(=O)[C@H](CCCCNC(=O)CCCCCCC(=O)Nc1cccc(COc2cc(OC)c(C(=O)O[C@H]3[C@@H](OC)O[C@H](CO)[C@@H](O)[C@@H]3O)cc2Cl)c1)NC(=O)OC(C)(C)C [Example 414] | 0.7 µM |
| Cc1ccc(OCc2ccccc2)cc1C(=O)OC[C@H]1OC(O)[C@H](O)[C@@H](O)[C@H]1O (stereo partly drawn) [Example 102] | 13.7 µM |
| COc1cc(OCc2cccc(CNC(=O)CCC(=O)NCCCCCC(=O)OC(C)(C)C)c2)c(Cl)cc1C(=O)O[C@H]1[C@@H](OC)O[C@H](CO)[C@@H](O)[C@@H]1O [Example 390] | 7.1 µM |
| COC(=O)[C@H](CCCCNC(=O)CCCCCNC(=O)CCC(=O)NCc1cccc(COc2cc(OC)c(C(=O)O[C@H]3[C@@H](OC)O[C@H](CO)[C@@H](O)[C@@H]3O)cc2Cl)c1)NC(=O)OC(C)(C)C [Example 411] | 25.9 µM |
| COc1cc(C(=O)OC[C@H]2OC(O)[C@H](O)[C@@H](O)[C@@H]2O)cc(Cl)c1OCCc1ccccc1 (stereo partly drawn) [Example 56] | 43.2 µM |
| COc1cc(OCc2cccc(CNC(=O)CCC(=O)NCCCCCC(=O)O)c2)c(Cl)cc1C(=O)O[C@H]1[C@@H](OC)O[C@H](CO)[C@@H](O)[C@@H]1O [Example 405] | 60.5 µM |
| COc1cc(OCc2cccc(NC(=O)CCCCCCCCC(=O)OC(C)(C)C)c2)c(Cl)cc1C(=O)N[C@H]1[C@@H](OC)O[C@H](CO)[C@@H](O)[C@@H]1O [Example 431] | 6.1 µM |
| C#CCCCn1c(COc2c(Cl)cc(C(=O)O[C@H]3[C@@H](OC)O[C@H](CO)[C@@H](O)[C@@H]3O)cc2OC)nc2ccccc21 [Example 186] | 6 µM |
| COc1cc(OCc2ccc(OCC(=O)OC(C)(C)C)cc2)c(Cl)cc1C(=O)O[C@H]1[C@@H](OC)O[C@H](CO)[C@@H](O)[C@@H]1O [Example 395] | 1.5 µM |
| COc1cc(OCc2nc3ccccc3n2Cc2ccccc2)c(Cl)cc1C(=O)O[C@H]1[C@@H](OC)O[C@H](CO)[C@@H](O)[C@@H]1O [Example 481] | 0.6 µM |
| COc1cc(C(=O)OC[C@H]2O[C@@H](OC)[C@H](O)[C@@H](O)[C@@H]2O)cc(Cl)c1OCc1nc2ccccc2n1C(C)C [Example 151] | 18.5 µM |
| COc1cccc(COc2c(Cl)cc(C(=O)O[C@H]3[C@@H](OC)O[C@H](CO)[C@@H](O)[C@@H]3O)cc2OC)c1 [Example 88] | 22.2 µM |
| COc1cc(OCc2coc(-c3ccc(C(F)(F)F)cc3)n2)c(Cl)cc1C(=O)O[C@H]1[C@@H](OC)O[C@H](CO)[C@@H](O)[C@@H]1O [Example 473] | < 0.1 µM |
| COc1cc(C(=O)O[C@H]2[C@@H](OC)O[C@H](CO)[C@@H](O)[C@@H]2O)cc(Cl)c1OCc1cccc(OCC(=O)OC(C)(C)C)c1 [Example 276] | 14.4 µM |
| COc1c(C(=O)O[C@H]2[C@@H](OC)O[C@H](CO)[C@@H](O)[C@@H]2O)ccc(OCc2ccccc2)c1Cl [Example 298] | 27.2 µM |
| COc1ccc(COc2c(Cl)cc(C(=O)O[C@H]3[C@@H](OC)O[C@H](CO)[C@@H](O)[C@@H]3O)cc2OC)cc1 [Example 190] | 10.2 µM |
| COc1cc(OCc2cccc(NC(=O)COCCOCC(=O)O)c2)c(Cl)cc1C(=O)O[C@H]1[C@@H](OC)O[C@H](CO)[C@@H](O)[C@@H]1O [Example 400] | 47.1 µM |
| COc1cc(OCc2ccccc2)c(Cl)cc1C(=O)O[C@@H]1[C@@H](O)[C@@H](OC)O[C@H](CO)[C@H]1O [Example 350] | 18 µM |
| COC(=O)[C@H](CCCCNC(=O)CCC(=O)NCc1cccc(COc2cc(OC)c(C(=O)O[C@H]3[C@@H](OC)O[C@H](CO)[C@@H](O)[C@@H]3O)cc2Cl)c1)NC(=O)OC(C)(C)C [Example 385] | 22.3 µM |

Now from value to compound:

| IC50 | Compound |
| --- | --- |
| 1.1 µM | CO[C@H]1O[C@H](CO)[C@@H](O)[C@H](O)[C@H]1NC(=O)c1cc(Cl)c(OCc2cn3c(C)cccc3n2)c(Cl)c1C [Example 256] |
| 27.4 µM | CO[C@H]1O[C@H](CO)[C@@H](O)[C@H](O)[C@H]1OC(=O)c1cc(Cl)c(OCCc2ccc(C)cc2)c(Cl)c1C [Example 243] |
| 6.7 µM | CCOC(=O)c1nnsc1COc1c(Cl)cc(C(=O)N[C@H]2[C@@H](OC)O[C@H](CO)[C@@H](O)[C@@H]2O)c(C)c1Cl [Example 283] |
| 1.1 µM | C#CCCCCCCCn1c(COc2c(Cl)cc(C(=O)N[C@H]3[C@@H](OC)O[C@H](CO)[C@@H](O)[C@@H]3O)c(C)c2Cl)nc2ccccc21 [Example 368] |
| 36 µM | COc1cc(OCc2cnc(OC)c(NCC(=O)O)c2)c(Cl)cc1C(=O)N[C@H]1[C@@H](OC)O[C@H](CO)[C@@H](O)[C@@H]1O [Example 483] |
| 2.2 µM | COc1cc(C(=O)O[C@H]2[C@@H](OC)O[C@H](CO)[C@@H](O)[C@@H]2O)cc(Cl)c1OCc1cnc(OC)c(Cl)c1 [Example 216] |
| 7.1 µM | COC(=O)c1cnc(COc2c(Cl)cc(C(=O)O[C@H]3[C@@H](OC)O[C@H](CO)[C@@H](O)[C@@H]3O)c(C)c2Cl)cn1 [Example 253] |
| 30.6 µM | CO[C@@H]1O[C@H](CO)[C@@H](O)[C@H](O)[C@H]1NC(=O)c1cc(Cl)cc(OCc2ccccc2)c1 [Example 334] |
| 0.2 µM | COc1ncc(COc2c(Cl)cc(C(=O)N[C@H]3[C@@H](OC)O[C@H](CO)[C@@H](O)[C@@H]3O)c(C)c2Cl)cc1NCC(=O)OC(C)(C)C [Example 303] |
| 51.7 µM | COC(=O)c1cnc(COc2c(Cl)cc(C(=O)N[C@H]3[C@@H](OC)O[C@H](CO)[C@@H](O)[C@@H]3O)c(C)c2Cl)cn1 [Example 246] |
| 4.8 µM | CN[C@@H](CC(C)C)C(=O)NCc1cccc(COc2c(Cl)cc(C(=O)O[C@H]3[C@@H](OC)O[C@H](CO)[C@@H](O)[C@@H]3O)c(C)c2Cl)c1 [Example 286] |
| 0.3 µM | CO[C@H]1O[C@H](CO)[C@@H](O)[C@H](O)[C@H]1OC(=O)c1cc(Cl)c(OCc2cn3c(C)cccc3n2)c(Cl)c1C [Example 255] |
| 4.2 µM | CCOC(=O)c1cccc(COc2c(Cl)cc(C(=O)O[C@H]3[C@@H](OC)O[C@H](CO)[C@@H](O)[C@@H]3O)c(C)c2Cl)n1 [Example 271] |
| 31.3 µM | COc1c(C(=O)N[C@H]2[C@H](OC)O[C@H](CO)[C@@H](O)[C@@H]2O)cc(Cl)c(OCc2ccccc2)c1Cl [Example 332] |
| 44.2 µM | COC(=O)[C@@H](N)CCCCNC(=O)CCCCCn1c(COc2c(Cl)cc(C(=O)N[C@H]3[C@@H](OC)O[C@H](CO)[C@@H](O)[C@@H]3O)c(C)c2Cl)nc2ccccc21 [Example 384] |
| 2.6 µM | COc1cc(OCc2ccc(OCC(=O)OC(C)(C)C)cc2)c(Cl)cc1C(=O)N[C@H]1[C@@H](OC)O[C@H](CO)[C@@H](O)[C@@H]1O [Example 387] |
| 31 µM | CO[C@H]1O[C@H](CO)[C@@H](O)[C@H](O)[C@H]1OC(=O)c1cc(Cl)c(OCc2cccc(CNCCCC(=O)OC(C)(C)C)c2)c(Cl)c1C [Example 348] |
| 13.4 µM | CO[C@H]1O[C@H](CO)[C@@H](O)[C@H](O)[C@H]1OC(=O)c1cc(Cl)c(OCc2cccc(C(=O)OC(C)(C)C)c2)c(Cl)c1C [Example 269] |
| 0.4 µM | COc1cc(OCc2ccc(/C=C/C(=O)NCCCC(=O)OC(C)(C)C)cc2)c(Cl)cc1C(=O)N[C@H]1[C@@H](OC)O[C@H](CO)[C@@H](O)[C@@H]1O [Example 236] |
| 1 µM | COC(=O)c1cc(COc2c(Cl)cc(C(=O)O[C@H]3[C@@H](OC)O[C@H](CO)[C@@H](O)[C@@H]3O)c(C)c2Cl)ccc1Cl [Example 262] |
| 2.5 µM | CO[C@H]1O[C@H](CO)[C@@H](O)[C@H](O)[C@H]1NC(=O)c1cc(Cl)c(OCc2cccc(C(=O)OC(C)(C)C)c2)c(Cl)c1C [Example 209] |
| 61.4 µM | COC(=O)CCCCCCCn1c(COc2cc(OC)c(C(=O)N[C@H]3[C@@H](OC)O[C@H](CO)[C@@H](O)[C@@H]3O)cc2Cl)nc2ccccc21 [Example 470] |
| 0.1 µM | C#CCCCn1c(COc2c(Cl)cc(C(=O)O[C@@H]3[C@@H](O)[C@@H](OC)O[C@H](CO)[C@H]3O)c(C)c2Cl)nc2ccccc21 [Example 275] |
| < 0.1 µM | COc1cc(OCc2ccc(-c3nccs3)cc2)c(Cl)cc1C(=O)O[C@H]1[C@@H](OC)O[C@H](CO)[C@@H](O)[C@@H]1O [Example 479] |
| 44 µM | COC(=O)[C@H](CCCCNC(=O)CCCCCCC(=O)Nc1cccc(COc2c(Cl)cc(C(=O)N[C@H]3[C@@H](OC)O[C@H](CO)[C@@H](O)[C@@H]3O)c(C)c2Cl)c1)NC(=O)OC(C)(C)C [Example 464] |
| 63.6 µM | COC(=O)c1ccc(COc2c(Cl)cc(C(=O)N[C@H]3[C@@H](OC)O[C@H](CO)[C@@H](O)[C@@H]3O)c(C)c2Cl)cn1 [Example 245] |

Same assay, conditions: Homo sapiens, A2780, 20 min

| Compound | IC50 |
| --- | --- |
| COc1cc(C(=O)OC[C@H]2O[C@@H](OCC[Si](C)(C)C)[C@H](O)[C@@H](O)[C@@H]2O)cc(Cl)c1OCCc1ccccc1 [Example 28] | 82.5 µM |
